The source of these data is US9815864B2, “Substituted nucleosides, nucleotides and analogs thereof” (Alios BioPharma, Inc., priority 2013, dated 2017).

Bounds are passed on as bounds.

The IC50 is the midpoint of a concentration-inhibition curve.

One assay deals with Norovirus polymerase (NoVpol, genotype II) (Lordsdale virus, UniProt P54634). The assay is described as follows: biochemical.
Norovirus polymerase (NoVpol, genotype II), sequence (P54634 1190-1699 limits assumed): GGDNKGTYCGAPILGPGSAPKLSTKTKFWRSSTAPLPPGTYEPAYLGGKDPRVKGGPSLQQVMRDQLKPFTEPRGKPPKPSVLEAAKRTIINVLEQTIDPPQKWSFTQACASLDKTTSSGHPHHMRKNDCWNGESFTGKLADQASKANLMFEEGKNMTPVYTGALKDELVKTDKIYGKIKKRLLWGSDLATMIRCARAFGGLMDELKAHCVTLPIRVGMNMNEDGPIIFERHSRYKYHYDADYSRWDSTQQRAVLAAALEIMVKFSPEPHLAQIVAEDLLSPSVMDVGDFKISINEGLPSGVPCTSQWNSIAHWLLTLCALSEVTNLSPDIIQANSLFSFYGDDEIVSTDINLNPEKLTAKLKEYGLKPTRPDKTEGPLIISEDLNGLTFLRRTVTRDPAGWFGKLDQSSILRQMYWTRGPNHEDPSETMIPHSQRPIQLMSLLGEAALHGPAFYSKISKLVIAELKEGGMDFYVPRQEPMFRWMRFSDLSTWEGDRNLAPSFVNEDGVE
Conditions: not given
On to `C[C@@]1(O)[C@H](O)[C@@](CF)(CO[P@](O)(=S)OP(=O)(O)OP(=O)(O)O)O[C@H]1n1ccc(=O)[nH]c1=O` [Compound 171a], for which the IC50 is < 1 µM.

`CC[C@]1(COP(=O)(O)OP(=O)(O)OP(=O)(O)O)O[C@@H](n2ccc(=O)[nH]c2=O)[C@H](F)[C@@H]1O` [Compound 37a] had an IC50 of 1 to 10 µM.

`Nc1ccn([C@@H]2O[C@](CF)(COP(=O)(O)OP(=O)(O)OP(=O)(O)O)[C@@H](O)[C@H]2F)c(=O)n1` [Compound 56c]: the IC50 was < 1 µM.

In the case of `C[C@]1(O)C(n2ccc(=O)[nH]c2=O)O[C@H](COP(=O)(O)OP(=O)(O)OP(=O)(O)O)[C@H]1O` (stereo partly shown) [Compound 260a], the IC50 was in the range of 1 to 10 µM.

For the molecule `C#C[C@@]1(O)[C@H](O)[C@@H](COP(O)(=S)OP(=O)(O)OP(=O)(O)O)O[C@H]1n1ccc(=O)[nH]c1=O` (stereo partly shown) [Compound 286a], the concentration for half-maximal inhibition (IC50) lay in the range of 1 to 10 µM.

The same assay, now with this note: 50 nM recombinant enzyme, 2.5 hours at 30° C.; read-out: IC50.
For the molecule `C[C@]1(O)[C@H](n2ccc(N)nc2=O)O[C@](C)(COP(=O)(O)OP(=O)(O)OP(=O)(O)O)[C@H]1O` [Compound 340a], the IC50 lay in the range of 1 to 10 µM.

For `C[C@@]1(O)[C@H](O)[C@@](CF)(COP(=O)(O)OP(=O)(O)OP(=O)(O)O)O[C@H]1n1ccc2c(N)ncnc21` [Compound 351a], the IC50 is < 1 µM.

On to `Cc1cn([C@@H]2O[C@](CCl)(COP(=O)(O)OP(=O)(O)OP(=O)(O)O)[C@@H](O)[C@H]2F)c(=O)nc1N` [Compound 97d], for which the IC50 was in the range of 1 to 10 µM.

With `C[C@@]1(Cl)[C@H](O)[C@@H](COP(=O)(O)OP(=O)(O)OP(=O)(O)O)O[C@H]1n1cnc2c(=O)[nH]c(N)nc21` [Compound 343a], the IC50 is < 1 µM.

As for `C=C[C@]1(COP(=O)(O)OP(=O)(O)OP(=O)(O)O)O[C@@H](n2cnc3c(=O)[nH]c(N)nc32)[C@H](F)[C@@H]1O` [Compound 34a], the IC50 was < 1 µM.

Take `C#C[C@]1(O)[C@H](n2cnc3c(=O)[nH]c(N)nc32)O[C@](F)(COP(=O)(O)OP(=O)(O)OP(=O)(O)O)[C@H]1O` [Compound 236a]: the IC50 was < 1 µM.

`N#C[C@@]1(n2ccc(N)nc2=O)O[C@](CF)(COP(=O)(O)OP(=O)(O)OP(=O)(O)O)[C@@H](O)[C@H]1O` [Compound 332a]: the IC50 is < 1 µM.

Consider `C[C@@]1(O)[C@H](O)[C@@](CN=[N+]=[N-])(COP(=O)(O)OP(=O)(O)OP(=O)(O)O)O[C@H]1n1ccc(=O)[nH]c1=O` [Compound 346a], for which the IC50 lay in the range of 1 to 10 µM.

`[N-]=[N+]=NC[C@]1(COP(=O)(O)OP(=O)(O)OP(=O)(O)O)O[C@@H](n2cnc3c(N)ncnc32)[C@H](F)[C@@H]1O` [Compound 212a]: the IC50 lay in the range of 1 to 10 µM.

Regarding `CC#C[C@@]1(O)[C@H](O)[C@@](CF)(COP(=O)(O)OP(=O)(O)OP(=O)(O)O)O[C@H]1n1ccc(=O)[nH]c1=O` [Compound 349a], the IC50 was < 1 µM.

`C[C@]1(O)[C@H](n2ccc(=O)[nH]c2=O)O[C@](C)(COP(=O)(O)OP(=O)(O)OP(=O)(O)O)[C@H]1O` [Compound 217a]: the IC50 is < 1 µM.

Take `C[C@]1(Cl)[C@H](n2ccc(=O)[nH]c2=O)O[C@](F)(COP(=O)(O)OP(=O)(O)OP(=O)(O)O)[C@H]1O` [Compound 239a]: the IC50 is 1 to 10 µM.

For `C[C@]1(O)[C@H](n2cnc3c(N)ncnc32)O[C@](F)(COP(=O)(O)OP(=O)(O)OP(=O)(O)O)[C@H]1O` [Compound 333a], the IC50 was in the range of 1 to 10 µM.

Take `C[C@]1(COP(=O)(O)OP(=O)(O)OP(=O)(O)O)O[C@@H](n2cnc3c(=O)[nH]c(N)nc32)[C@H](O)[C@@H]1O` [Compound 334a]: the IC50 was < 1 µM.

On to `C#C[C@@]1(O)[C@H](O)[C@@H](COP(=O)(O)OP(=O)(O)OP(=O)(O)O)O[C@H]1n1cnc2c(=O)[nH]c(N)nc21` [Compound 290a], for which the IC50 is < 1 µM.

In the case of `C=C[C@@]1(O)[C@H](O)[C@@](CF)(COP(=O)(O)OP(=O)(O)OP(=O)(O)O)O[C@H]1n1ccc(=O)[nH]c1=O` [Compound 348a], the IC50 is < 1 µM.

In the case of `C[C@@]1(Cl)[C@H](O)[C@@H](COP(=O)(O)OP(=O)(O)OP(=O)(O)O)O[C@H]1n1ccc(N)nc1=O` [Compound 262a], the IC50 lay within 1 to 10 µM.

Consider `Nc1nc2c(ncn2[C@@H]2O[C@](CCl)(COP(=O)(O)OP(=O)(O)OP(=O)(O)O)[C@@H](O)[C@H]2F)c(=O)[nH]1` [Compound 116a], for which the IC50 was 1 to 10 µM.

With `C[C@]1(N=[N+]=[N-])[C@H](n2ccc(N)nc2=O)O[C@](F)(COP(=O)(O)OP(=O)(O)OP(=O)(O)O)[C@H]1O` [Compound 302a], the IC50 was 1 to 10 µM.

On to `[N-]=[N+]=N[C@]1(COP(=O)(O)OP(=O)(O)OP(=O)(O)O)O[C@@H](n2cnc3c(=O)[nH]c(N)nc32)[C@H](F)[C@@H]1O` [Compound 269a], for which the concentration for half-maximal inhibition (IC50) was < 1 µM.

Take `C=CC[C@@]1(O)[C@H](O)[C@@](CF)(COP(=O)(O)OP(=O)(O)OP(=O)(O)O)O[C@H]1n1ccc(=O)[nH]c1=O` [Compound 350a]: the IC50 lay in the range of 1 to 10 µM.

`C[C@]1(F)[C@H](n2cnc3c(=O)[nH]c(N)nc32)O[C@](F)(COP(=O)(O)OP(=O)(O)OP(=O)(O)O)[C@H]1O` [Compound 214a]: the IC50 is < 1 µM.

Consider `C[C@]1(O)[C@H](n2ccc(=O)[nH]c2=O)O[C@](F)(COP(=O)(O)OP(=O)(O)OP(=O)(O)O)[C@H]1O` [Compound 122a], for which the IC50 is 1 to 10 µM.

For `C[C@]1(F)[C@H](n2ccc(=O)[nH]c2=O)O[C@](F)(COP(=O)(O)OP(=O)(O)OP(=O)(O)O)[C@H]1O` [Compound 242a], the IC50 lay in the range of 10 to 100 µM.

In the case of `C#C[C@@]1(O)[C@H](O)[C@@](CF)(COP(=O)(O)OP(=O)(O)OP(=O)(O)O)O[C@H]1n1ccc(=O)[nH]c1=O` [Compound 219a], the IC50 is < 1 µM.

With `O=c1[nH]cnc2c1ncn2[C@@H]1O[C@](CCl)(COP(=O)(O)OP(=O)(O)OP(=O)(O)O)[C@@H](O)[C@H]1F` [Compound 98b], the IC50 lay in the range of 1 to 10 µM.

For `Nc1ccn([C@@H]2O[C@](CF)(COP(=O)(O)OP(=O)(O)OP(=O)(O)O)[C@@H](O)[C@]2(O)CF)c(=O)n1` [Compound 355a], the IC50 was < 1 µM.

As to `C#C[C@]1(F)[C@H](n2ccc(=O)[nH]c2=O)O[C@](F)(COP(=O)(O)OP(=O)(O)OP(=O)(O)O)[C@H]1O` [Compound 313a], the IC50 was in the range of 1 to 10 µM.

Consider `CO[C@]1(COP(=O)(O)OP(=O)(O)OP(=O)(O)O)O[C@@H](n2ccc(N)nc2=O)[C@H](F)[C@@H]1O` [Compound 36d], for which the IC50 fell in the range of 1 to 10 µM.

Consider `C=C[C@]1(COP(=O)(O)OP(=O)(O)OP(=O)(O)O)O[C@@H](n2ccc(N)nc2=O)[C@H](F)[C@@H]1O` [Compound 36b], for which the IC50 lay within 1 to 10 µM.

On to `[N-]=[N+]=N[C@]1(COP(=O)(O)OP(=O)(O)OP(=O)(O)O)O[C@@H](n2ccc(=O)[nH]c2=O)[C@H](O)[C@@H]1O` [Compound 264a], for which the IC50 was < 1 µM.

Consider `O=c1ccn([C@@H]2O[C@](CF)(COP(=O)(O)OP(=O)(O)OP(=O)(O)O)[C@@H](O)[C@H]2F)c(=O)[nH]1` [Compound 111a], for which the IC50 was < 1 µM.

As for `[N-]=[N+]=NC[C@]1(COP(=O)(O)OP(=O)(O)OP(=O)(O)O)O[C@@H](n2ccc(=O)[nH]c2=O)[C@H](F)[C@@H]1O` [Compound 114a], the IC50 was < 1 µM.

On to `O=c1ccn([C@@H]2O[C@](CCl)(COP(=O)(O)OP(=O)(O)OP(=O)(O)O)[C@@H](O)[C@H]2F)c(=O)[nH]1` [Compound 56a], for which the IC50 was in the range of 1 to 10 µM.

Regarding `Nc1ccn([C@@H]2O[C@@](COP(=O)(O)OP(=O)(O)OP(=O)(O)O)(CC(F)F)[C@@H](O)[C@H]2F)c(=O)n1` [Compound 272a], the IC50 lay within 1 to 10 µM.

On to `C#C[C@]1(COP(=O)(O)OP(=O)(O)OP(=O)(O)O)O[C@@H](n2cnc3c(=O)[nH]c(N)nc32)[C@H](F)[C@@H]1O` [Compound 34b], for which the concentration for half-maximal inhibition (IC50) is < 1 µM.

For the molecule `N#C[C@@]1(n2ccc(=O)[nH]c2=O)O[C@](CF)(COP(=O)(O)OP(=O)(O)OP(=O)(O)O)[C@@H](O)[C@H]1O` [Compound 331a], the IC50 is < 1 µM.

Regarding `N#C[C@]1(COP(=O)(O)OP(=O)(O)OP(=O)(O)O)O[C@@H](n2cnc3c(=O)[nH]c(N)nc32)[C@H](F)[C@@H]1O` [Compound 34e], the IC50 was < 1 µM.

For `C#C[C@@]1(O)[C@H](O)[C@@H](COP(=O)(O)OP(=O)(O)OP(=O)(O)O)O[C@H]1n1ccc2c(N)ncnc21` [Compound 292a], the IC50 is < 1 µM.

Consider `O=c1ccn([C@@H]2O[C@](CCl)(COP(=O)(O)OP(=O)(O)OP(=O)(O)O)[C@@H](O)C2(F)F)c(=O)[nH]1` [Compound 222a], for which the IC50 fell in the range of 10 to 100 µM.

With `C[C@@]1(Cl)[C@H](O)[C@@](CF)(COP(=O)(O)OP(=O)(O)OP(=O)(O)O)O[C@H]1n1ccc(=O)[nH]c1=O` [Compound 306a], the IC50 was 10 to 100 µM.

In the case of `[N-]=[N+]=N[C@]1(COP(=O)(O)OP(=O)(O)OP(=O)(O)O)O[C@@H](n2ccc(=O)[nH]c2=O)[C@H](F)[C@@H]1O` [Compound 267a], the IC50 was < 1 µM.

On to `C=C[C@]1(COP(=O)(O)OP(=O)(O)OP(=O)(O)O)O[C@@H](n2ccc(N)nc2=O)C(F)(F)[C@@H]1O` [Compound 224a], for which the IC50 is 1 to 10 µM.

As to `[N-]=[N+]=NC[C@]1(COP(=O)(O)OP(=O)(O)OP(=O)(O)O)O[C@@H](n2ccc(N)nc2=O)[C@H](F)[C@@H]1O` [Compound 115a], the IC50 was in the range of 1 to 10 µM.

As to `[N-]=[N+]=N[C@]1(COP(=O)(O)OP(=O)(O)OP(=O)(O)O)O[C@@H](n2ccc(N)nc2=O)[C@@H](O)[C@@H]1O` [Compound 270a], the IC50 is < 1 µM.

As to `C#C[C@@]1(O)[C@H](O)[C@@](CCl)(COP(=O)(O)OP(=O)(O)OP(=O)(O)O)O[C@H]1n1cnc2c(N)ncnc21` [Compound 342a], the IC50 was < 1 µM.

As for `CCC[C@]1(CO)O[C@@H](n2ccc(N)nc2=O)[C@H](F)[C@@H]1O` [Compound 21a], the IC50 lay within 1 to 10 µM.

As for `C#C[C@@]1(n2cnc3c(=O)[nH]c(N)nc32)O[C@H](COP(=O)(O)OP(=O)(O)OP(=O)(O)O)[C@@H](O)[C@H]1F` [Compound 335a], the IC50 lay within 1 to 10 µM.

As for `[N-]=[N+]=N[C@]1(COP(=O)(O)OP(=O)(O)OP(=O)(O)O)O[C@@H](n2cnc3c(=O)[nH]c(N)nc32)[C@H](O)[C@@H]1O` [Compound 268a], the half-inhibitory concentration (IC50) is < 1 µM.

As to `C#C[C@]1(F)[C@H](n2cnc3c(=O)[nH]c(N)nc32)O[C@](F)(COP(=O)(O)OP(=O)(O)OP(=O)(O)O)[C@H]1O` [Compound 237a], the half-inhibitory concentration (IC50) is < 1 µM.
